Here are results for twelve compounds from ChEMBL document CHEMBL1201862, “PubChem BioAssay data set” (2004).

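Assay format: 96-well plates, 48-hour exposure. GI50 marks 50% less growth.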 Active and inactive are the calls of the source. Rule as the data show it: active = GI50 up to about 1.1 µM and inactive = higher.

What all share (test): growth of human tumour cells (NCI), 48 h
Test [1] relates to MOLT-4.
Test [2] concerns HOP-62.
Test [3] deals with K562.
The subject of test [4] is UO-31.
The subject of test [5] is NCI-H23.
Test [6] deals with OVCAR-3.
Test [7] concerns ACHN.
Test [8] relates to HCT-116.
Test [9] deals with HCC 2998.
Test [10] has as its system UACC-62.
Test [11] has as its system DMS-273.
Test [12] deals with SF-295.
Test [13] relates to HOP-92.
Test [14] relates to UACC-257.
Test [15] has as its system SK-MEL-2.
Test [16] has as its system M14.
Test [17] deals with OVCAR-5.

In the case of `Cc1cc2c(=O)c3ccccc3[nH]c2c(C(=O)O)c1C`, the GI50 in [1] is > 100 µM (inactive); in [2], > 100 µM (inactive); in [3], > 100 µM (inactive); in test [4], 43.9 µM (inactive); in test [5], > 100 µM (inactive); in test [6], > 100 µM (inactive). Moreover, the GI50 in test [7] was > 100 µM (inactive); in test [8], 76 µM (inactive); in test [9], > 100 µM (inactive); in test [10] it was > 100 µM (inactive); in test [11], > 100 µM (inactive); in [12], > 100 µM (inactive). The figures for the GI50 in test [13], in test [14] and in test [15] were < 0.01 µM (active), > 100 µM (inactive) and > 100 µM (inactive), respectively.

Turning to `CCC(=C(c1ccc(OCc2ccccc2)cc1)c1ccc(OCc2ccccc2)cc1)c1ccc(OC)cc1`, the GI50 in test [1], in test [2], in [16], in test [3], in test [4] and in test [17] was > 100 µM (inactive) each time. Also, the GI50 in test [5], in [6], in test [7], in test [8], in test [9] and in test [10] was > 100 µM (inactive) each time. The GI50 in test [11], in test [12], in test [13] and in test [15] was > 100 µM (inactive) each time.

Take `CC(C)=CC1C[C@H](C2CC=C3C2(C)CCC2[C@@]3(C)C(=O)CC3[C@]2(C)C=CC(=O)[C@]3(C)CO)CO1` (stereo partly specified): the GI50 was 2.7 µM (inactive) in [1]; 12.7 µM (inactive) in test [2]; 3.12 µM (inactive) in test [16]; 4.34 µM (inactive) in test [3]; 18.6 µM (inactive) in [4]; 21 µM (inactive) in test [17]. Further, the GI50 in [5] is 5.42 µM (inactive); in test [6], 4.84 µM (inactive); in [7] it was 13.2 µM (inactive); in test [8], 3.37 µM (inactive); in test [9], 16.3 µM (inactive); in test [10] it was 11.8 µM (inactive). The GI50 was 5.66 µM (inactive) in test [11]; 13 µM (inactive) in [12]; 16.6 µM (inactive) in test [13]; 13.9 µM (inactive) in [14]; 5.45 µM (inactive) in [15].

Regarding `Cn1cnc2nc(Cl)nc(NC(C)(C)C(C)(C)O)c21`, the GI50 in [1], in test [2], in [16], in test [3], in test [4] and in test [17] was > 100 µM (inactive) each time. Also, the GI50 in test [5], in [6], in test [7], in test [8], in [9] and in test [10] was > 100 µM (inactive) each time. Also, the GI50 in test [11], in test [12], in test [13], in [14] and in test [15] was > 100 µM (inactive) in each case.

As for `COc1ccc(CN[C@H]2CCc3cc(OC)c(OC)c(OC)c3-c3ccc(SC)c(=O)cc32)c(OC)c1OC`, the GI50 in test [1] was 0.0361 µM (active); in [2], 0.0319 µM (active); in test [16], 0.0308 µM (active); in test [3] it was 0.0346 µM (active); in [4], 0.132 µM (active); in [17], 0.0421 µM (active). For the same compound, the GI50 is 0.0219 µM (active) in test [5]; 0.0235 µM (active) in [6]; 0.063 µM (active) in test [7]; 0.0229 µM (active) in test [8]; 0.0202 µM (active) in test [9]; 0.023 µM (active) in test [10]. The GI50 was 0.0267 µM (active) in test [11]; 0.0296 µM (active) in test [12]; 0.0681 µM (active) in test [13]; 0.0811 µM (active) in test [14]; 0.0282 µM (active) in test [15].

With `CCN(CC)CCN1CCc2c([nH]c3ccccc23)C1c1cccnc1` (stereo unspecified), the GI50 in [1] is > 100 µM (inactive); in [2] it was > 100 µM (inactive); in [16], > 100 µM (inactive); in test [3] it was 88.9 µM (inactive); in test [4], 37.2 µM (inactive); in test [17], > 100 µM (inactive). For the same compound, the GI50 in [5], in test [6], in test [7], in test [8], in test [9] and in [10] was > 100 µM (inactive) throughout. The GI50 in test [11] is > 100 µM (inactive); in test [12], > 100 µM (inactive); in [13], 65 µM (inactive); in test [14] it was 37.5 µM (inactive).

Consider `O=c1c2cccc3cccc(c4oc5c6cccc7cccc(c(=O)c5c14)c76)c32`, for which the GI50 is 12.5 µM (inactive) in test [1]; > 100 µM (inactive) in test [2]; 12.4 µM (inactive) in [16]; > 10 µM (inactive) in [3]; 13.5 µM (inactive) in test [4]; 27.2 µM (inactive) in test [17]. Further, the GI50 in test [5] was 13.2 µM (inactive); in [6], 12 µM (inactive); in test [7] it was 11.6 µM (inactive); in test [8], 2.25 µM (inactive); in [9], 27.2 µM (inactive); in test [10], 12.8 µM (inactive). Moreover, the GI50 in [11] is 12.8 µM (inactive); in [12], 17.9 µM (inactive); in [13] it was 8.22 µM (inactive); in test [14], 17.1 µM (inactive); in test [15], 15.7 µM (inactive).

`CCOC(=O)C(C(=O)OCC)=C1C=C(c2ccccc2)c2ccccc21`: the GI50 in test [1] was 30.5 µM (inactive); in test [2], 13.3 µM (inactive); in test [16], 35.9 µM (inactive); in test [3], 36.6 µM (inactive); in [4], > 100 µM (inactive); in test [17], 38.6 µM (inactive). The GI50 in [5] was 54.5 µM (inactive); in test [6], > 100 µM (inactive); in [7] it was 41 µM (inactive); in [8], 48.9 µM (inactive); in test [9] it was 7.29 µM (inactive); in test [10] it was > 100 µM (inactive). Besides, the GI50 in [11] is 51.5 µM (inactive); in test [12] it was 31.2 µM (inactive); in [13], 8.09 µM (inactive); in [14] it was 73.1 µM (inactive); in test [15], > 100 µM (inactive).

With `O=C1NC2(CCCCCC2)C2CCCCCCC12O` (stereo unspecified), the GI50 in test [1], in test [2], in [16], in test [3], in test [4] and in [17] was > 100 µM (inactive) in each case. Further, the GI50 in test [5], in test [6], in test [7], in test [8], in test [10] and in test [11] was > 100 µM (inactive) throughout. The GI50 in test [12], in test [13], in [14] and in test [15] was > 100 µM (inactive) throughout.

Consider `CCCCCCCCC(O)C#CC(N)=O` (stereo unspecified), for which the GI50 in test [1] was 16.9 µM (inactive); in test [16], 12.3 µM (inactive); in test [3], 13.3 µM (inactive); in test [4] it was 10 µM (inactive); in test [17] it was 26.7 µM (inactive); in test [5], 17.6 µM (inactive). Moreover, the GI50 in [6] was 7.35 µM (inactive); in test [7], 12.4 µM (inactive); in [8] it was 3.67 µM (inactive); in [9], 10.6 µM (inactive); in test [10], 5.16 µM (inactive); in [11] it was 7.28 µM (inactive). Besides, the GI50 is 39 µM (inactive) in test [12], 10.5 µM (inactive) in test [13], 13 µM (inactive) in [14] and 13.3 µM (inactive) in test [15].

`C=CCC1=C(C)C[C@@H]2CCC(=O)C=C12`: the GI50 in test [1], in test [2], in [16], in test [3], in test [4] and in test [17] was > 100 µM (inactive) throughout. The GI50 in test [5], in test [6], in test [7], in test [8], in test [10] and in test [11] was > 100 µM (inactive) each time. Further, the GI50 in [12], in test [13], in test [14] and in test [15] was > 100 µM (inactive) in each case.

For the compound `C=CCNC(=S)N/C=C1\C(=O)Oc2ccccc2C1=O`, the GI50 in test [1] was > 100 µM (inactive); in test [16] it was 63.4 µM (inactive); in test [3] it was > 100 µM (inactive); in test [4], 27.5 µM (inactive); in test [17], 62.4 µM (inactive); in [5] it was > 100 µM (inactive). Also, the GI50 was 82 µM (inactive) in test [6]; 32.1 µM (inactive) in test [7]; 49.5 µM (inactive) in [8]; 68.4 µM (inactive) in test [9]; 46.3 µM (inactive) in test [10]; > 100 µM (inactive) in test [11]. Moreover, the GI50 in test [12] is > 100 µM (inactive); in test [13] it was 30.5 µM (inactive); in [14] it was > 100 µM (inactive); in [15] it was 13.2 µM (inactive).
